Assay results taken from ChEMBL document CHEMBL1156480, “Insensitivity to Abeta42-lowering nonsteroidal anti-inflammatory drugs and gamma-secretase inhibitors is common among aggressive presenilin-1 mutations” (J Biol Chem, 2007).

Assays:
Assay type in all cases: cell-based
Parameters in all cases: scale not given: the % may be the effect or the level left
[1] = biological target: Presenilin-1 (Homo sapiens) (UniProt P49768); test: Reduction of wild type human PS1-induced amyloid beta42 level in CHO cells overexpressing human APP751 at 30 uM after 24 hrs by liquid phase electrochemiluminescence assay relative to control
[2] = tested on: Presenilin-1 (Homo sapiens), P49768 [S290C]; test: Reduction of human PS1 S290C mutant-induced amyloid beta-42 level in CHO cells overexpressing human APP751 at 30 uM after 24 hrs by liquid phase electrochemiluminescence assay relative to control
CHO [3] = test: Reduction of human PS1 delta exon9 mutant-induced amyloid beta-42 level in CHO cells overexpressing human APP751 at 30 uM after 24 hrs by liquid phase electrochemiluminescence assay relative to control
CHO [4] = test: Reduction of human PS1 delta 291 to 319 deletion mutant-induced amyloid beta-42 level in CHO cells overexpressing human APP751 at 30 uM after 24 hrs by liquid phase electrochemiluminescence assay relative to control
[5] = tested on: Presenilin-1 (Homo sapiens), P49768 [M292D]; test: Reduction of human PS1 M292D mutant-induced amyloid beta-42 level in CHO cells overexpressing human APP751 at 30 uM after 24 hrs by liquid phase electrochemiluminescence assay relative to control
[6] = tested on: Presenilin-1 (Homo sapiens), P49768 [M292D,M146L]; test: Reduction of human PS1 M292D/M146L mutant-induced amyloid beta-42 level in CHO cells overexpressing human APP751 at 30 uM after 24 hrs by liquid phase electrochemiluminescence assay relative to control
[7] = biological target: Presenilin-1 (Homo sapiens) (UniProt P49768); test: Reduction of human wild type human PS1-induced amyloid beta-42 level in CHO cells overexpressing human APP751 at 60 uM after 24 hrs by liquid phase electrochemiluminescence assay relative to control
[8] = tested on: Presenilin-1 (Homo sapiens), P49768 [S290C]; test: Reduction of human PS1 S290C mutant-induced amyloid beta-42 level in CHO cells overexpressing human APP751 at 60 uM after 24 hrs by liquid phase electrochemiluminescence assay relative to control
CHO [9] = test: Reduction of human PS1 delta exon9 mutant-induced amyloid beta-42 level in CHO cells overexpressing human APP751 at 60 uM after 24 hrs by liquid phase electrochemiluminescence assay relative to control
CHO [10] = test: Reduction of human PS1 delta 291 to 319 deletion mutant-induced amyloid beta-42 level in CHO cells overexpressing human APP751 at 60 uM after 24 hrs by liquid phase electrochemiluminescence assay relative to control
[11] = tested on: Presenilin-1 (Homo sapiens), P49768 [S290C,M292D]; test: Reduction of human PS1 S290C/M292D mutant-induced amyloid beta-42 level in CHO cells overexpressing human APP751 at 30 uM after 24 hrs by liquid phase electrochemiluminescence assay relative to control
[12] = tested on: Presenilin-1 (Homo sapiens), P49768 [M292D]; test: Reduction of human PS1 M292D mutant-induced amyloid beta42 level in CHO cells overexpressing human APP751 at 60 uM after 24 hrs by liquid phase electrochemiluminescence assay relative to control
[13] = tested on: Presenilin-1 (Homo sapiens), P49768 [M292D,M146L]; test: Reduction of human PS1 M292D/M146L mutant-induced amyloid beta42 level in CHO cells overexpressing human APP751 at 60 uM after 24 hrs by liquid phase electrochemiluminescence assay relative to control
[14] = tested on: Presenilin-1 (Homo sapiens), P49768 [L166P]; test: Reduction of human PS1 L166P mutant-induced amyloid beta42 level in CHO cells overexpressing human APP751 at 60 uM after 24 hrs by liquid phase electrochemiluminescence assay relative to control
[15] = tested on: Presenilin-1 (Homo sapiens), P49768 [P117L]; test: Reduction of human PS1 P117L mutant-induced amyloid beta42 level in CHO cells overexpressing human APP751 at 60 uM after 24 hrs by liquid phase electrochemiluminescence assay relative to control
[16] = tested on: Presenilin-1 (Homo sapiens), P49768 [G384A]; test: Reduction of human PS1 G384A mutant-induced amyloid beta42 level in CHO cells overexpressing human APP751 at 60 uM after 24 hrs by liquid phase electrochemiluminescence assay relative to control
[17] = tested on: Presenilin-1 (Homo sapiens), P49768 [L166P]; test: Reduction of human PS1 L166P mutant-induced amyloid beta42 level in CHO cells overexpressing human APP751 at 30 uM after 24 hrs by liquid phase electrochemiluminescence assay relative to control
[18] = tested on: Presenilin-1 (Homo sapiens), P49768 [P117L]; test: Reduction of human PS1 P117L mutant-induced amyloid beta42 level in CHO cells overexpressing human APP751 at 30 uM after 24 hrs by liquid phase electrochemiluminescence assay relative to control
[19] = tested on: Presenilin-1 (Homo sapiens), P49768 [G384A]; test: Reduction of human PS1 G384A mutant-induced amyloid beta42 level in CHO cells overexpressing human APP751 at 30 uM after 24 hrs by liquid phase electrochemiluminescence assay relative to control

- Activity [1]: 78.2%
- Activity [2]: 83.8%
- Activity [5]: 89.5%
- Activity [6]: 73.2%
- Activity [7]: 61.6%
- Activity [8]: 65.9%
- Activity [11]: 82.4%
- Activity [12]: 73.9%
- Activity [13]: 58.5%
- Activity [14]: 99.2%
- Activity [15]: 88.5%
- Activity [16]: 90.3%
- Activity [17]: 99.5%
- Activity [18]: 100%
- Activity [19]: 95.1%
Structure (SMILES): CSc1ccc(/C=C2/C(C)=C(CC(=O)O)c3cc(F)ccc32)cc1
- Activity (CHO [3]): 99.7%
- Activity (CHO [4]): 88.7%
- Activity (CHO [9]): 99.5%
- Activity (CHO [10]): 82.7%
